Data set [1] has as its target T1, partially purified rat brain farnesyl protein transferase (FPT) (Rattus norvegicus, UniProt Q02293+Q04631).
T1 construct: partially purified rat brain farnesyl protein transferase (FPT); from tissue; host or cells: rat brain
Briefly: FPT IC50, in vitro enzyme assay (inhibition of Ras-CVLS farnesylation). Format: biochemical. The conditions noted are these: inhibition of Ras-CVLS farnesylation by partially purified rat brain FPT; value is a range stated for a group of compounds. The procedure:
1. In vitro enzyme assays: FPT IC50 (inhibition of farnesyl protein transferase, in vitro enzyme assay) are determined by the methods disclosed in WO/10515 or WO95/10516.

On to `N#Cc1ccc(Cn2cncc2CCNC(=O)[C@H]2CN(S(=O)(=O)c3ccccc3)CCN2C(=O)NC2CCCCC2)cc1` [Example 28R, N2-[2-[1-[(4-Cyanophenyl)methyl]-1H-imidazol-5-yl]ethyl]-N1-cyclohexyl-4-(phenylsulfonyl)-1,2(R)-piperazinedicarboxamide], for which the melting point came to 143.6 °C. For the same molecule, the concentration for half-maximal inhibition (IC50) in data set [1] is 0.18 to 21 nM.
On to `O=C([C@H]1CN(Cc2ccccc2)CCN1C(=O)NC1CCCCC1)N(CCCn1ccnc1)Cc1ccccc1` [Example 28S, N1-cyclohexyl-N2-[3-(1H-imidazol-1-yl)propyl]-N2,4-bis(phenylmethyl)-1,2(R)-piperazinedicarboxamide], for which the melting point was 89.1 °C. For the same molecule, in data set [1], the IC50 was 0.18 to 21 nM.
Regarding `CC(C)(C)NC(=O)N1CCN(Cc2ccccc2)C[C@@H]1C(=O)N(CCCn1ccnc1)Cc1ccccc1` [Example 28T, N1-(1,1-dimethylethyl)-N2-[3-(1H-imidazol-1-yl)propyl]-N2,4-bis(phenylmethyl)-1,2(R)-piperazinedicarboxamide], the melting point is 57.8 °C. The molecule further displayed an IC50 in data set [1] of 0.18 to 21 nM.

As a reminder, the IC50 is the concentration that inhibits the measured activity by half. A high value points to weaker potency in that assay. The term melting point denotes the temperature, or range, at which the solid turns liquid.

The values above are taken from patent US6432959B1, “Inhibitors of farnesyl-protein transferase” (Schering Corporation, priority 1998, dated 2002).
